# Experimental data reported in ChEMBL document CHEMBL1137877, “Synthesis and evaluation of 4-(1-aminoalkyl)-N-(4-pyridyl)cyclohexanecarboxamides as Rho kinase inhibitors and neurite outgrowth promoters” (2004).
# Test system: NG108-15
# Experiment: Mean percent neurite outgrowth (cells with neurites longer than cell body/total cells) was determined in NG108-15 cells after 4 hr incubation at 35 uM
# Format: functional, Mus musculus x Rattus norvegicus
row,Compound,Activity
1,C[C@@H](N)C1CCC(C(=O)Nc2ccncc2)CC1.Cl.Cl (stereo partly specified),68%
2,CCC[C@H](N)C1CCC(C(=O)Nc2ccncc2)CC1.Cl.Cl (stereo partly specified),23%
3,C[C@@H](N)[C@H]1CC[C@H](C(=O)Nc2ccncc2)CC1.Cl.Cl,82%
4,CCCCCCCC[C@@H](N)C1CCC(C(=O)Nc2ccncc2)CC1.Cl.Cl (stereo partly specified),0%
5,"CCC[C@@H](N)C1CCC(C(=O)Nc2ccncc2)CC1.Cl.Cl (single isomer, unassigned; (+))",48%
6,C[C@H](N)C1CCC(C(=O)Nc2ccncc2)CC1.Cl.Cl (stereo partly specified),70%
